Data on 1 substance can be found in patent US20050227296A1, “Method for indentifying integrin antagonists” (The General Hospital Corporation, a Massachusetts …, priority 1988, published 2005).

In assay [1] the test system is biotinylated NIF binding to human neutrophils. Put plainly: Inhibition of biotinylated NIF binding to neutrophils. To be noted: dose dependent. The method, then: 100 μg of rNIF were labeled with sulfo-NHS-Biotin as described above. rNIF binding to resting or stimulated human neutrophils (pretreated with 10^−6 M f-met-leu-phe, for 15 minutes at 37° C., then washed) was measured. Increasing amounts of biotinylated rNIF in the absence or presence of 100-fold molar excess of unlabeled rNIF were incubated on ice for one hour with 1×10^6 neutrophils in VBSG^++ in a total volume of […]. Cells were then washed and incubated with phycoerythrin-coupled avidin (Sigma Chemical Co.) under similar conditions, washed again, fixed in 1% paraformaldehyde in PBS, and analyzed using FACScan (Becton Dickinson Co., Mountain View, Calif.). Mean channel fluorescence for each sample was then expressed as a function of the amount of biotinylated rNIF used. Background binding of phycoerythrin-streptavidin alone to neutrophils was subtracted (2.8 fluorescent units). Specific binding was obtained by […], and the values plotted according to Scatchard (Ann. N.Y. Acad. Sci. 51:660, 1949). To determine the effect of unlabeled fluid-phase-r11bA or GST on rNIF binding to neutrophils, each was preincubated at varying concentrations with biotinylated rNIF (20 ng/ml, final concentration) for 15 minutes on ice before addition of the mixture to neutrophils. The effect of mAbs on biotinylated NIF binding to neutrophils was assessed by preincubating the neutrophils with 100 μg/ml of each mAb at 4° C. for 15 minutes before addition of biotinylated NIF (20 ng/ml). The incubation then continued for one hour, followed by processing of cells for FACS analysis as described below.

The target of assay [2] is T1, EAiC3b (erythrocytes coated with iC3b) (Homo sapiens, UniProt P01024).
T1 construct: EAiC3b (erythrocytes coated with iC3b) were generated by treating EAC3b with purified human factors H and I; tissue Sigma Chemical Co. (C5-deficient human serum); host or cells: human serum C3 deposited on IgM-coated erythrocytes
T1 sequence (P01024 749-1303 limits assumed): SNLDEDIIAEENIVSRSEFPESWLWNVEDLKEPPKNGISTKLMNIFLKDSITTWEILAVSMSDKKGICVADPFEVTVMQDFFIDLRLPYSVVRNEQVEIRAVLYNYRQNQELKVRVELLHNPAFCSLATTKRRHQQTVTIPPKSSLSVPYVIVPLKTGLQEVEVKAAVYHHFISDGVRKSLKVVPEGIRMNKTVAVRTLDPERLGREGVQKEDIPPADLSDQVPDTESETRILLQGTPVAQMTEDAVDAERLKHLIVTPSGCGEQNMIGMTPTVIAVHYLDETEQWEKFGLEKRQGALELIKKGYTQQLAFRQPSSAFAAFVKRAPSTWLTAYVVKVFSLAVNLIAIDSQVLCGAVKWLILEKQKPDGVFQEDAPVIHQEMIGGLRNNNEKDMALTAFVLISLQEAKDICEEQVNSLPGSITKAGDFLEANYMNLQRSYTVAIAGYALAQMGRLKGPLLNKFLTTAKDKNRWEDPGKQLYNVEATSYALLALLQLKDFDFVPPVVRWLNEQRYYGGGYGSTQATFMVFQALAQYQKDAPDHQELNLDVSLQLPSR
T1 sequence (P01024 23-667 partner limits assumed): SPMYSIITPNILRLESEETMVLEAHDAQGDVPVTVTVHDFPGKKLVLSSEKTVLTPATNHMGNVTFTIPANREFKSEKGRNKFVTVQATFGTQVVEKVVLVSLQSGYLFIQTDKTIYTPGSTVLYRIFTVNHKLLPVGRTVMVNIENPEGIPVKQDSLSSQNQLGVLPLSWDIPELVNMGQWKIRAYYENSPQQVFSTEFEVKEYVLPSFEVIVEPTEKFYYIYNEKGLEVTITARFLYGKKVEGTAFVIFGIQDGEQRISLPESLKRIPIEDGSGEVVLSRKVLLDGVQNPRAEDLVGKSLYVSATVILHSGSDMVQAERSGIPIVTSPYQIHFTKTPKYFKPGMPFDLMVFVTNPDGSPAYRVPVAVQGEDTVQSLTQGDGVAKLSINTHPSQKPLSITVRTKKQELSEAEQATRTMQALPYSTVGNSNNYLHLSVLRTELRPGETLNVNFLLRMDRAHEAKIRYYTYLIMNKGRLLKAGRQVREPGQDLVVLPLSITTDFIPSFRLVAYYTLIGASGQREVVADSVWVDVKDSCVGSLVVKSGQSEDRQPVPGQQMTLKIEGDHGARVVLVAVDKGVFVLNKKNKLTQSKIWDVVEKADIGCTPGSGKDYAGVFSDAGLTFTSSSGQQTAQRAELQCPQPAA
T1 sequence (P01024 1321-1663 partner limits assumed): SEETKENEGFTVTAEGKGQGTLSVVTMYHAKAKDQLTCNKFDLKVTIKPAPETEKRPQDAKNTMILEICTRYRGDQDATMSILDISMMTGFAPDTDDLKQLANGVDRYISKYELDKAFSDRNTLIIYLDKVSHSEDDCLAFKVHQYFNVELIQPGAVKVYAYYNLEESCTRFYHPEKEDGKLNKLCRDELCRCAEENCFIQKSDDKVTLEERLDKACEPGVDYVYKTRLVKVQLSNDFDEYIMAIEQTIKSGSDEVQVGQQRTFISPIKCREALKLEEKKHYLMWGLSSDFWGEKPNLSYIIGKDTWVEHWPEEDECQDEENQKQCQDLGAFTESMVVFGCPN
The assay is described as follows: Erythrocyte binding assay, EAiC3b on immobilized proteins or peptides. To be noted: 37° C., divalent cations. On the procedure: Erythrocytes (E) coated with rabbit anti-E IgM (EA) or C3b (EAC3b) were prepared as described by Dana et al. (J. Immunol. 73:153, 1984). EAiC3b (erythrocytes coated with iC3b) were generated by treating EAC3b with purified human factors H and I, or alternatively prepared from EA using C5-deficient human serum (Sigma Chemical Co., St. Louis, Mo.). EAiC3b cells were washed and stored in isotonic veronal-buffered saline (VBS^2+), pH 7.4, containing 0.15 mM calcium-1 mM magnesium (MgCl2+CaCl2) and 1 mg/ml Soybean Trypsin Inhibitor (STI; Worthington Biochemical Co., Freehold, N.J.) at 1.5×10^8 cells/ml. EA, EAC3b or EAiC3b were labeled with 5-(and-6)-carboxy fluorescein (Molecular Probes, Eugene, Oreg.) as described by Michishita et al. (Cell 72:857, 1993).
Immobilization of recombinant proteins and peptides: Purified recombinant A-domain was added to Immulon-2 96-well microtiter plates (Dynatech) overnight. Wells were then washed once with phosphate-buffered-saline, pH 7.4 without metals, and blocked with 1% BSA at room temperature (RT) for one hour, followed by two washings with buffer A (composed of 60% GVBS:VBS^2+ mixed in a 1:3 ratio; Arnaout et al., in Complement Receptor Type 3 at 602-615, Academic Press, FL) containing 1 mM MnCl2 or MgCl2+CaCl2. All the peptides were stocked at 1 mg/ml in water and similarly adsorbed to Immulon-2 96-well plates. Binding of the anti-CD11b mabs to the coated rA-domain was measured by ELISA and read using a plate reader (Molecular Dynamics).
Erythrocyte binding assays: Fluoresceinated EAiC3b, EAC3b or EA were resuspended to 1.5×10^8/ml in buffer A, and added […] to wells containing immobilized proteins or peptides in a total volume of […]. The plates were then briefly centrifuged to settle the erythrocytes, and allowed to incubate at 37° C. for 15 minutes in a humidified incubator with 5% CO2. For the inhibition studies, E were preincubated with each recombinant protein or pure peptide in the presence of 2% BSA for 5 minutes at RT and added to wells coated with immobilized protein or peptide without washing, unless otherwise indicated. At the end of the binding reactions, wells were washed, examined briefly by light microscopy then solubilized with 1% SDS-0.2 N NaOH. Fluorescence was quantified (excitatory wavelength, 490 nm, emission wavelength, 510 nm) using a SLM 8000 fluorometer (SLM Instruments, Urbana, Ill.). In experiments where the effects of individual divalent cations were measured, Ca^2+ and Mg^2+ were replaced with metal-free buffers or with buffers containing each cation at […], unless otherwise indicated. The effect of temperature was evaluated in the presence of 1 mM MnCl2 at 37° C. and at 4° C.

For the substance “GST: glutathione-S-transferase, fusion partner of r11bA, used as control [reference compound]”, the “effect of fluid-phase protein on biotinylated rNIF binding to human neutrophils” value in assay [1] is listed as “not”. Also, the “direct binding of EAiC3b to immobilized protein or peptide” value in assay [2] was “did not bind”.
